We go through three substances from US20160250285A1, “NEUROPROTECTIVE PEPTIDES” (priority 2013, published 2016).

Where two headings read alike, the source gives them in different places. Square brackets hold non-standard residues; d marks the D form.

In test [1] the test system is intracellular calcium influx in neuronal cultures. The test is described as follows: Intracellular calcium influx (Fura-2 AM) after glutamic acid. The class given is cell-based, rat. To be noted: peptide 5 μM for 10 min, removed before 100 μM glutamic acid (FIG. 44). Background: Calcium assays in cells follow changes in intracellular calcium, usually with a dye or a luminescent sensor.
Protocol: Fura-2 AM was used for intracellular calcium assessment. Representative fluorescent Fura-2 AM tracers; fluorescence intensity (FI) of neuronal cultures 30 sec before and following addition (arrow) of glutamic acid (100 μM final concentration). Peptides or glutamate receptor blockers were added to neuronal cultures for 10 min and removed (time 0) before glutamic acid. Values are mean±SE; n=3. Peptide concentration was 5 μM.
Briefly, cortical tissue from E18-E19 Sprague-Dawley rats was dissociated in Dulbecco's modified Eagle medium (DMEM; Invitrogen, Australia) supplemented with 1.3 mM L-cysteine, 0.9 mM NaHCOa, 10 units/ml papain (Sigma, USA) and 50 units/ml DNase (Sigma) and washed in cold DMEM/10% horse serum. Neurons were resuspended in Neurobasal (Invitrogen) containing 2% B27 supplement (B27; Invitrogen). Before seeding, 96-well sized glass wells (6 mm diameter, ProTech, Australia) or 96-well plastic plates (ProSciTech, Australia) were coated with poly-D-lysine overnight (50 ml/well: 50 mg/mL; 70-150 K, Sigma). Excess poly-D-lysine solution was then removed and replaced with Neurobasal (containing 2% B27; 4% fetal bovine serum; 1% horse serum; 62.5 mM glutamate; 25 mM 2-mercaptoethanol; and 30 mg/mL streptomycin and 30 mg/mL penicillin). Neurons were plated to obtain ≈10,000 viable neurons for each well on day in vitro 11-12. Neuronal cultures were maintained in a CO2 incubator (5% CO2, 95% air balance, 98% humidity) at 37° C. On day in vitro 4 one third of the culture medium was removed and replaced with fresh Neurobasal/2% B27 containing the mitotic inhibitor, cytosine arabinofuraNOside (1 mM final concentration; Sigma). On day in vitro 8 one half of the culture medium was replaced with Neurobasal/2% B27. Cultures were used on day in vitro 11 or 12 after which time they routinely consist of >97% neurons and 1-3% astrocytes (Meloni et al. 2001).

In test [2] the test system is primary cortical neuronal cultures. To be noted: for neuroprotection (neuronal viability): peptide 15 min prior to and during glutamic acid exposure, viability 24 h, MTS; for neuroprotection when added immediately after glutamic acid exposure: 0 min post-insult (FIG. 1d); for neuroprotection when added 15 minutes post-insult: 15 min post-glutamic acid (FIG. 1d). The procedure: Briefly, cortical tissue from E18-E19 Sprague-Dawley rats was dissociated in Dulbecco's modified Eagle medium (DMEM; Invitrogen, Australia) supplemented with 1.3 mM L-cysteine, 0.9 mM NaHCOa, 10 units/ml papain (Sigma, USA) and 50 units/ml DNase (Sigma) and washed in cold DMEM/10% horse serum. Neurons were resuspended in Neurobasal (Invitrogen) containing 2% B27 supplement (B27; Invitrogen). Before seeding, 96-well sized glass wells (6 mm diameter, ProTech, Australia) or 96-well plastic plates (ProSciTech, Australia) were coated with poly-D-lysine overnight ([…]: 50 mg/mL; 70-150 K, Sigma). […] Neurons were plated to obtain ≈10,000 viable neurons for each well on day in vitro 11-12. […] On day in vitro 4 one third of the culture medium was removed and replaced with fresh Neurobasal/2% B27 containing the mitotic inhibitor, cytosine arabinofuraNOside (1 mM final concentration; Sigma). On day in vitro 8 one half of the culture medium was replaced with Neurobasal/2% B27.
(§1) To induce excitotoxicity, 50 μl of Neurobasal/2% B27 containing glutamic acid (200 μM) or kainic acid (400 μM) or NMDA (200 μM) was added to the culture wells (100 μM glutamic acid, 200 μM kainic acid and NMDA 100 μM final concentration). Cultures were incubated at 37° C. in the CO2 incubator for 5 minutes for glutamic acid, 45 minutes for kainic acid and 10 minutes for NMDA exposure, after which time the media was replaced with 100 μl of 50% Neurobasal/2% N2 supplement (Invitrogen) and 50% balanced salt solution (BSS; see below). Cultures were incubated for a further 24 hours at 37° C. in the CO2 incubator. The untreated controls with or without glutamic acid or kainic acid treatment received the same wash steps and media additions.
Following this step, cultures were treated as described above. Untreated controls with or without glutamic acid exposure received the same wash steps and media additions. In addition, a post-glutamic acid exposure CPP treatment (5 μM) experiment was performed for the R9 peptide and the JNKI-1D-TAT control peptide.
For pre-glutamic acid exposure experiments, neurons were exposed to peptide(s) for a 10 minute period, immediately before or 1, 2, 3, 4 or 5 hours prior to glutamic acid exposure. […] At the relevant peptide pre-treatment time, media was removed and replaced with 100 μl of Neurobasal/2%. […] Following 5-minute glutamic acid exposure, neuronal culture wells were treated as described above. For all experiments untreated controls with or without glutamic acid treatment underwent the same incubation steps and media additions.
Heparin (for injection) was obtained from Pfizer (1000 IU/ml). Two different heparin experiments were performed: 1. Peptides were incubated with heparin (20 IU/ml) in Neurobasal/B27 for 5 minutes at room temperature, before addition to culture wells (50 μl) for 15 minutes at 37° C. in the CO2 incubator. Following the incubation period, media in wells was removed and replaced with 100 μl of Neurobasal/2% B27 containing glutamic acid (100 μM), and subsequently treated as described above; 2. Media in wells was replaced with Neurobasal/2% B27 containing heparin (50 μl; 40 IU/ml) and incubated for 5 minutes at 37° C. in the CO2 incubator. After the incubation period, peptides or glutamate receptor blockers (MK801/CNQX) in Neurobasal/2% B27 (50 μl) were added to the culture wells and cultures incubated for a further 10 minutes at 37° C. in the CO2 incubator. Following the incubation period, media in wells was removed and replaced with 100 μl of Neurobasal/2% B27 containing glutamic acid (100 μM), and subsequently treated as described above. For all experiments, non-heparin treated peptide controls with glutamic acid treatment underwent the same incubation steps and media additions.
Twenty-four hours after insult, neuronal cultures were examined by light microscopy for qualitative assessment of neuronal cell viability.

The test system is the same in test [3]. The test is described as follows: In vitro ischemia / oxygen-glucose deprivation (OGD) model, neurons. Type of test: cell-based, rat. Particulars: peptide present during in vitro ischemia and at 50% dose after (FIG. 3a).
Test [4] has the same test system. Particulars: values from Meade et al. (2010a,b); read-out: IC50: Glutamic acid model; cited from earlier work.
The test system is the same in test [5]. To be noted: FIG. 2. The procedure: Establishment of cortical cultures was as previously described (Meloni et al. 2001). Briefly, cortical tissue from E18-E19 Sprague-Dawley rats was dissociated in Dulbecco's modified Eagle medium (DMEM; Invitrogen, Australia) supplemented with 1.3 mM L-cysteine, 0.9 mM NaHCOa, 10 units/ml papain (Sigma, USA) and 50 units/ml DNase (Sigma) and washed in cold DMEM/10% horse serum. Neurons were resuspended in Neurobasal (Invitrogen) containing 2% B27 supplement (B27; Invitrogen). Before seeding, 96-well sized glass wells (6 mm diameter, ProTech, Australia) or 96-well plastic plates (ProSciTech, Australia) were coated with poly-D-lysine overnight ([…]: 50 mg/mL; 70-150 K, Sigma). Excess poly-D-lysine solution was then removed and replaced with Neurobasal (containing 2% B27; 4% fetal bovine serum; 1% horse serum; […] glutamate; […] 2-mercaptoethanol; and […]). Neurons were plated to obtain ≈10,000 viable neurons for each well on day in vitro 11-12. Neuronal cultures were maintained in a CO2 incubator (5% CO2, 95% air balance, 98% humidity) at 37° C. On day in vitro 4 one third of the culture medium was removed and replaced with fresh Neurobasal/2% B27 containing the mitotic inhibitor, cytosine arabinofuraNOside (1 mM final concentration; Sigma). On day in vitro 8 one half of the culture medium was replaced with Neurobasal/2% B27. Cultures were used on day in vitro 11 or 12 after which time they routinely consist of >97% neurons and 1-3% astrocytes (Meloni et al. 2001).
as §1, with “Peptides were added to culture wells (96-well plate format) 15 minutes prior to glutamic acid or kainic acid exposure by removing media and adding 50 μl of Neurobasal/2% 327 containing CPPs, control peptides or MK801/CNQX. To” for “To”
(§2) Twenty-four hours after insult, neuronal cultures were examined by light microscopy for qualitative assessment of neuronal cell viability. Neuronal viability was quantitatively measured by 3-(4,5,dimethyliazol-2-yl)-5-(3-carboxymethoxy-phenyl)-2-(4-sulfophenyl)-2H-tetrazolium salt (MTS) assay (Promega, Australia). The MTS assay measures the cellular conversion of the tetrazolium salt to a water-soluble brown formazan salt, which is detected spectrophotometrically at 490 nm. MTS absorbance data were converted to reflect proportional cell viability relative to both the untreated and treated controls, with the untreated control taken as 100% viability, and presented as mean±SEM. For studies using astrocytes, bEND3, and SH-Y5Y cells, raw MTS data was used to generate graphs. Viability data was analysed by ANOVA, followed by post-hoc Fischer's PLSD test, with P<0.05 values considered statistically significant. Four- to six wells were used in all assays.

Test [6] shares this test system. The test is described as follows: NMDA excitotoxicity model. Type of test: cell-based, rat. To be noted: peptide 15 min before and during NMDA exposure (FIG. 37). The procedure: Establishment of cortical cultures was as previously described (Meloni et al. 2001). Briefly, cortical tissue from E18-E19 Sprague-Dawley rats was dissociated in Dulbecco's modified Eagle medium (DMEM; Invitrogen, Australia) supplemented with 1.3 mM L-cysteine, 0.9 mM NaHCOa, 10 units/ml papain (Sigma, USA) and 50 units/ml DNase (Sigma) and washed in cold DMEM/10% horse serum. Neurons were resuspended in Neurobasal (Invitrogen) containing 2% B27 supplement (B27; Invitrogen). Before seeding, 96-well sized glass wells (6 mm diameter, ProTech, Australia) or 96-well plastic plates (ProSciTech, Australia) were coated with poly-D-lysine overnight ([…]: 50 mg/mL; 70-150 K, Sigma). […]
as §2, with “For studies using astrocytes, bEND3, and SH-Y5Y cells, raw MTS data was used to generate graphs. Viability data was analysed by ANOVA, followed by post-hoc Fischer's PLSD test, with P<0.05 values considered statistically significant. Four- to six wells were used in all assays.” left out

For test [7] the test system is unchanged. To be noted: values from Meade et al. (2010a,b); read-out: IC50: Kainic acid model; cited from earlier work.

Broadly, the IC50 is the concentration that gives 50% inhibition.

For “GRKKRRQRRRGGLQGRRRQGYQSIKP [PYC36L-TAT, reference compound]”, the “calcium influx after glutamic acid” value in test [1] is “to varying degrees reduced calcium influx”. Besides, in test [2] (heparin 20 IU/ml with peptide or 40 IU/ml on cultures (FIGS. 39, 40)), the “effect of heparin on neuroprotective action” value was “blocks neuroprotective actions”. The “neuroprotection (neuronal viability)” value in test [2] is recorded as “highly effective”. The neuroprotection entry in test [3] and in test [5] was “effective” throughout. The IC50 in test [4] is 1.5 µM.

For “H-GRKKRRQRRR-KLSSIESDV-NH2 (H-GRKKRRQRRRKLSSIESDV-NH2) [NR2B9c-TAT, reference compound]”, the “calcium influx after glutamic acid” value in test [1] is given as “to varying degrees reduced calcium influx”. Further, in test [2], the “neuroprotection when added immediately after glutamic acid exposure” value was “did not significantly increase neuronal survival” and the “neuroprotection when added 15 minutes post-insult” value is given as “did not significantly increase neuronal survival”. In addition, the “neuroprotection, milder insult” value in test [2] (FIG. 1i, comparison at 0.5 μM and 1 μM) is on record as “ineffective”. Further, the “neuroprotection (neuronal viability)” value in test [2] (listed as TAT-NR29C) is “ineffective”. Also, the neuroprotection result in test [6] is recorded as “low level neuroprotection”.

Turning to “H-tdqsrpvqpflnlttprkprpp-rrrqrrkkrG-NH2 (H-[dT][dD][dQ][dS][dR][dP][dV][dQ][dP][dF][dL][dN][dL][dT][dT][dP][dR][dK][dP][dR][dP][dP][dR][dR][dR][dQ][dR][dR][dK][dK][dR]G-NH2; SMILES CC(C)C[C@@H](NC(=O)[C@@H](Cc1ccccc1)NC(=O)[C@H]1CCCN1C(=O)[C@@H](CCC(N)=O)NC(=O)[C@H](NC(=O)[C@H]1CCCN1C(=O)[C@@H](CCCNC(=N)N)NC(=O)[C@@H](CO)NC(=O)[C@@H](CCC(N)=O)NC(=O)[C@@H](CC(=O)O)NC(=O)[C@H](N)[C@H](C)O)C(C)C)C(=O)N[C@H](CC(N)=O)C(=O)N[C@H](CC(C)C)C(=O)N[C@@H](C(=O)N[C@@H](C(=O)N1CCC[C@@H]1C(=O)N[C@H](CCCNC(=N)N)C(=O)N[C@H](CCCCN)C(=O)N1CCC[C@@H]1C(=O)N[C@H](CCCNC(=N)N)C(=O)N1CCC[C@@H]1C(=O)N1CCC[C@@H]1C(=O)N[C@H](CCCNC(=N)N)C(=O)N[C@H](CCCNC(=N)N)C(=O)N[C@H](CCCNC(=N)N)C(=O)N[C@H](CCC(N)=O)C(=O)N[C@H](CCCNC(=N)N)C(=O)N[C@H](CCCNC(=N)N)C(=O)N[C@H](CCCCN)C(=O)N[C@H](CCCCN)C(=O)N[C@H](CCCNC(=N)N)C(=O)NCC(N)=O)[C@H](C)O)[C@H](C)O) [JNKI-1D-TAT, reference compound]”, the “calcium influx after glutamic acid” value in test [1] is listed as “to varying degrees reduced calcium influx”. The “neuroprotection when added immediately after glutamic acid exposure” value is given as “ineffective” in test [2] and “did not significantly increase neuronal survival” in test [2] (listed as JNKI-1 D-TAT). Besides, the “neuroprotection when added 15 minutes post-insult” value was “ineffective” in test [2] and “did not significantly increase neuronal survival” in test [2] (listed as JNKI-1 D-TAT). Also, the “neuroprotection (neuronal viability)” value in test [2] is “highly effective”; in test [2] (listed as JNKI-1-TATD) it was “neuroprotective”. Further, the IC50 was 2.1 µM in test [4] and 6.5 µM in test [7]. Also, the neuroprotection entry in test [5] is on record as “effective”.
